Source: ChEMBL document CHEMBL4680279, “Opportunities for Tapping into Three-Dimensional Chemical Space through a Quaternary Carbon” (J Med Chem, 2020)
≈ marks a conversion by molar mass, not a printed value.

Key:
[1] = molecular target: Growth hormone secretagogue receptor type 1 (Rattus norvegicus, UniProt O08725); assay: Agonist activity at GHSR in Wistar rat pituitary gland cells assessed as induction of GH release by RIA; assay type: tissue-based, Pituitary gland cell
Candida albicans = assay: Antifungal activity against Candida albicans 124 incubated for 48 hrs; assay type: functional
Aspergillus fumigatus = assay: Antifungal activity against Aspergillus fumigatus incubated for 72 hrs; assay type: functional
[2] = Displacement of N-[3H]ethyladenosin-5'-uronamide from adenosine receptor A2 in rat striatal membranes by liquid scintillation counting method; assay type: cell membranes, Striatum, Membrane
[3] = molecular target: Cholecystokinin(CCK) A/B (Homo sapiens) (UniProt P32239+P32238); assay: Selectivity index, ratio of IC50 for human Cholecystokinin B receptor expressed in CHO-K1 cells to IC50 for human Cholecystokinin A receptor expressed in CHO-K1 cells; assay type: cell-based
Cholecystokinin(CCK) A/B (Homo sapiens), sequence (P32238 whole entry, looked up): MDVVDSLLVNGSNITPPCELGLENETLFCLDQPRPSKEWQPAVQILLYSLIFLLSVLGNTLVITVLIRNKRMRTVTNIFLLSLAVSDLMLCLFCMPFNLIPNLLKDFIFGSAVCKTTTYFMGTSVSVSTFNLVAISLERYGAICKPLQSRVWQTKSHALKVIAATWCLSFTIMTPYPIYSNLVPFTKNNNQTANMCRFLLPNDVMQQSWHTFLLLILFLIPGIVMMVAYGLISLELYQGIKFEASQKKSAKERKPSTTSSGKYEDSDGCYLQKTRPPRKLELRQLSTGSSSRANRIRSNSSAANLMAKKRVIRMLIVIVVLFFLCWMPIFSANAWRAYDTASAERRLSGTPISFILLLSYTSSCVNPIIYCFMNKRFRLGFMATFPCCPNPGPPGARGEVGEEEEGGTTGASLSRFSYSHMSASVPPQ
Cholecystokinin(CCK) A/B (Homo sapiens), sequence (P32239 whole entry, looked up): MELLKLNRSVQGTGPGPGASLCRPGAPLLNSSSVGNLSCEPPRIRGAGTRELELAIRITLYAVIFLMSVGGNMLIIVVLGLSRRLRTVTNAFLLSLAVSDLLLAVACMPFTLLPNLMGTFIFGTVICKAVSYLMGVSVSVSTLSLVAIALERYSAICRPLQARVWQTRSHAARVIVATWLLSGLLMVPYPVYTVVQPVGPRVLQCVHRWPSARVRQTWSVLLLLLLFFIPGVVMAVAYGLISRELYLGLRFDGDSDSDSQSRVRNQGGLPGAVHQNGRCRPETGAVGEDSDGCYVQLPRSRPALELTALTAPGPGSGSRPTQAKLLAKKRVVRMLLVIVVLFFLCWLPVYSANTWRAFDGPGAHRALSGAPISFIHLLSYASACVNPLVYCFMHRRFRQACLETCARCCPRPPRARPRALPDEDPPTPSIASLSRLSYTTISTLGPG

[4] = Selectivity ratio of Ki for Displacement of N-[3H]ethyladenosin-5'-uronamide from adenosine receptor A2 in rat striatal membranes to Ki for Displacement of N6-[3H]cyclohexyladenosine from adenosine receptor A1 in guinea pig forebrain membranes; assay type: cell membranes

Growth hormone secretagogue receptor type 1, sequence (O08725 whole entry): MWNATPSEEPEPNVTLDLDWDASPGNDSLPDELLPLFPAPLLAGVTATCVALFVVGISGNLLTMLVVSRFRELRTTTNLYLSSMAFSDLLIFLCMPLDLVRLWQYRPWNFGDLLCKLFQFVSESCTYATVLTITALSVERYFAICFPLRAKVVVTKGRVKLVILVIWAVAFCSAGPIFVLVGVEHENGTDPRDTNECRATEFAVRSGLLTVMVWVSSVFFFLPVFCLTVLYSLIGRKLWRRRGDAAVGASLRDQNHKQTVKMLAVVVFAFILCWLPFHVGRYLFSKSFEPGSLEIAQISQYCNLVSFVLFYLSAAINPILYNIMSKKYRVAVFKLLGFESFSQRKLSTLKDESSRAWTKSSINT

SMILES | MIC (Candida albicans) [µg/mL] | MIC (Aspergillus fumigatus) [µg/mL] | Ratio IC50 [3] | also measured
O=C(NC(Cc1c[nH]c2ccccc12)C(=O)N1CCC2(CCc3ccccc32)CC1)NC1CN2CCC1CC2 (centres undefined) [SPIROPIPERIDINE] |  |  |  | EC50 [1]: 50 nM
CN(Cc1ccc(C(C)(C)c2ccccc2)cc1)Cc1cccc2ccccc12 | 1.56 (≈ 4.11 µM) | 0.1 (≈ 0.263 µM) |  | 
CCCn1c(=O)c2[nH]c(C3CCCC3)nc2n(CCC)c1=O [1,3-DIPROPYL-8-CYCLOPENTYLXANTHINE [DPCPX]] |  |  |  | Ki [2]: 590 nM
CN1N=C2CCN(C(=O)[C@@H](COCc3ccccc3)NC(=O)C(C)(C)N)C[C@@]2(Cc2ccccc2)C1=O [CAPROMORELIN] |  |  |  | EC50 [1]: 3 nM
CC(C)N(C(=O)CN1C(=O)C(C)(NC(=O)Nc2ccccc2)C(=O)N(c2ccccc2)c2ccccc21)c1ccccc1 (centres undefined) |  |  | 0.2 | 
CN(Cc1ccc(C2(c3ccccc3)CC2)cc1)Cc1cccc2ccccc12 | 3.13 (≈ 8.29 µM) | 1.56 (≈ 4.13 µM) |  | 
CC(C)N(C(=O)CN1C(=O)C(C)(CC(=O)Nc2ccccc2)C(=O)N(c2ccccc2)c2ccccc21)c1ccccc1 (centres undefined) |  |  | 110 | 
CN(Cc1ccc(Cc2ccccc2)cc1)Cc1cccc2ccccc12 | > 100 | > 100 |  | 
CCCn1c(=O)c2nc(C3C(C)(C)CCC3(C)C)[nH]c2n(CCC)c1=O |  |  |  | Ratio Ki [4]: > 4500; Ki [2]: > 100000 nM
CC(C)N(C(=O)CN1C(=O)C(CC(=O)Nc2ccccc2)C(=O)N(c2ccccc2)c2ccccc21)c1ccccc1 (centres undefined) |  |  | 5 | 
